Assay results: PMC5577610, “Nine New Triterpene Glycosides, Magnumosides A1–A4, B1, B2, C1, C2 and C4, from the Vietnamese Sea Cucumber Neothyonidium (=Massinium) magnum: Structures and Activities against Tumor Cells Independently and in Synergy with Radioactive Irradiation” (Marine Drugs, 2017)

Tests used:
[1] = system: ascites form of mouse Ehrlich carcinoma cells; test: Cytotoxic activity (MTT) against the ascites form of mouse Ehrlich carcinoma cells; assay type: cell-based; conditions: ascites form of mouse Ehrlich carcinoma cells, MTT, incubated over night
Experimental: (§1) The spleenocytes from CD-1 line mice were used. The spleen was isolated from mice and homogenized. The spleenocytes were washed thrice and resuspended with RPMI-1640 medium contained gentamicine 8 μg/mL (Biolot, Saint Petersburg, Russia). The museum tetraploid strain of murine ascites Ehrlich carcinoma cells from the All-Russian cancer center RAMS (Moscow, Russia) was used. The cells of the ascites Ehrlich carcinoma were separated from ascites, which were collected on day 7 after inoculation in mouse CD-1 line. The cells were washed of ascites thrice and then resuspended in liquid media DMEM with L-Glutamine (Biolot, Saint Petersburg, Russia).
(§2) The solutions of tested substances in different concentrations (20 µL) and cell suspension (200 µL) were added in wells of 96-well plate and incubated over night at 37 °C and 5% CO2. After incubation the cells were sedimented by centrifugation, 200 µL of medium from each well were collected and 100 µL of pure medium were added. Then 10 µL of MTT solution […] (Sigma, St. Louis, MO, USA) were added in each well. Plate was incubated 4 h, after that 100 µL SDS-HCl were added to each well and plate was incubated at 37 °C 4–18 h. Optical density was measured at 570 nm and 630–690 nm. The activity of the substances was calculated as the ratio of the dead cells to general cells amount (ED50). Typicoside A1 [28] and cucumarioside A2-2 [11] were used as positive controls.

mouse erythrocytes = assay type: cell-based; conditions: CD-1 mouse erythrocytes, 1 h at 37 °C; dose causing 50% of hemolysis
Experimental: The erythrocytes were washed thrice with 0.9% NaCl, centrifuged (450 g) on a centrifuge […] (Heraeus, Hanau, Germany) for 5 min followed by re-suspending in phosphate-buffered saline (PBS), pH 7.2-7.4. […] ED50 was calculated using SigmaPlot 3.02 software (Jandel Scientific, San Rafael, CA, USA). […] The erythrocyte suspension in phosphate-buffered saline, pH 7.2-7.4 (PBS) with 20 μL of the solvent without a tested compound was used as negative control.

mouse spleenocytes = test: Cytotoxic activity (MTT) against mouse spleenocytes; assay type: cell-based; conditions: CD-1 mouse spleenocytes, MTT, incubated over night
Experimental: as §1, §2

[2] = system: human lung carcinoma H1299 cells; set-up: method as in PMID 25738799; conditions: cited from earlier work
[3] = system: Lewis lung carcinoma cell xenograft tumor; set-up: method as in PMID 25738799; conditions: C57BL/6 mice bearing a Lewis lung carcinoma cell xenograft tumor; cited from earlier work
[4] = system: human lung carcinoma A549 cells; set-up: method as in PMID 25738799; conditions: cited from earlier work

SMILES | IC50 [1] [nM] | Hemolytic Activity, ED50 (mouse erythrocytes) [μM/mL] | IC50 (mouse spleenocytes) [nM] | Sensitization to γ-radiation (in words) [2] | Efficacy of radiation therapy (in words) [3] | Sensitization to γ-radiation (in words) [4]
C=C(C)CCCC1(C)OC(=O)C23CCC4C(=CCC5C(C)(C)C(OC6OCC(OS(=O)(=O)[O-])C(O)C6OC6OC(C)C(OC7OC(CO)C(O)C(OC8OC(CO)C(O)C(OC)C8O)C7O)C(O)C6OC6OCC(O)C(O)C6O)CCC45C)C2(C)CC(=O)C13.[Na+] (stereo not drawn) [Cucumarioside A2-2, reference compound] | 1390 ± 15 | 0.82 ± 0.02 | 1210 ± 20 | – | – | –
CC(C)=CCC[C@](C)(O)[C@H]1CC[C@]2(C)[C@@H]1[C@H](O)C[C@@H]1[C@@]3(C)CC[C@H](O[C@@H]4O[C@H](CO)[C@@H](O)[C@H](O)[C@H]4O[C@@H]4O[C@H](CO)[C@@H](O)[C@H](O)[C@H]4O)C(C)(C)[C@@H]3CC[C@]12C [ginsenoside Rg3] | – | – | – | sensitized | significantly enhanced the efficacy of radiation therapy | sensitized
